Test results taken from patent publication US20190054045A1, “METHODS AND COMPOSITIONS FOR TREATING SKIN CONDITIONS” (priority 2017, published 2019).

What was measured:
[1] = test system: burn scar; test: Topical metformin to treat a burn scar on intact skin (patient case); type: in vivo, human; details: 250 mg/mL in petrolatum ointment, two times per day
Procedure: A patient with a burn scar from a previously treated skin cancer complaining of a raised red and itchy scar on their chest received topical metformin in petrolatum ointment at 250 mg/mL with directions to apply the lotion to the affected area (red, raised fibrotic scarred skin on chest) two times per day.

[2] = test system: surgical defect; test: Topical metformin to treat scarring on open skin (surgical defect, patient case); type: in vivo, human; details: topical ointment 250 mg/mL twice a day; within 4 weeks; in comparison to patients healing with topical petrolatum alone; observation by physician
Procedure: A patient with a previous surgical scar from removal of skin cancer with a scalpel received topical metformin ointment at 250 mg/mL with directions to apply the ointment twice a day to the surgical defect until healed (approximately 2-4 weeks).

CN(C)C(=N)N=C(N)N [metformin]
scarring of the skin ([1]; after one month): further improved
scarring of the skin (redness, itch, softness) ([1]; within 14 days, observation by physician and patient): visibly reduced with less redness, itch, and increased softness
scarring and redness of area [2]: minimal scaring and redness
